Source: ChEMBL document CHEMBL5321281, “Synthesis and Biological Evaluation of Heterocyclic Ring-Fused 20(S)-Protopanaxadiol Derivatives as Potent Antiosteoporosis Agents” (J Med Chem, 2023)
Active and inactive are the calls of the source. The rule behind the calls is not given here.

What was measured:
[1] = Cmax in ICR mouse at 1 mg/kg, iv and measured upto 24 hrs by LC-MS/MS analysis; format: ADME, organism-based; design: dose 1 mg/kg, time < 24 hrs, route iv; conditions: in vivo
[2] = Half life in ICR mouse at 10 mg/kg, po and measured upto 24 hrs by LC-MS/MS analysis; format: ADME, organism-based; conditions: in vivo
[3] = Apparent volume of distribution in ICR mouse at 1 mg/kg, iv and measured upto 24 hrs by LC-MS/MS analysis; format: ADME, organism-based; conditions: in vivo, read-out: Vz
[4] = test system: BMMC; assay: Anti-osteoclastogenic activity in C57/BL6 mouse BMMC cells assessed as inhibition of RANKL-stimulated osteoclastogenesis at 1 uM and compound added at day 5 to 7 (late stage) and measured after 3 days in presence of M-CSF by TRAP staining based microscopic analysis relative to control; format: functional; conditions: 72 h, time 3 day
[5] = test system: Mus musculus; assay: Protective effect in ovariectomy induced osteoporosis C57BL/6 mouse model assessed as increase in bone surface/tissue volume (BS/TV) in RIO of femur at 1 to 3 mg/kg, ip and measured after 6 weeks by micro-CT analysis; format: functional, organism-based; conditions: dose 1-3 mg/kg
[6] = test system: Mus musculus; assay: Protective effect in ovariectomy induced osteoporosis C57BL/6 mouse model assessed as increase in bone volume/tissue volume (BV/TV) in RIO of femur at 3 mg/kg, ip and measured after 6 weeks by micro-CT analysis; format: functional
[7] = test system: Mus musculus; assay: Protective effect in ovariectomy induced osteoporosis C57BL/6 mouse model assessed as inhibition of OVX-induced osteoclast activity by analysing osteoclast area in proximal femur at 3 mg/kg, ip and measured after 6 weeks by H and E staining based microscopic analysis; format: functional, organism-based
[8] = AUCt in ICR mouse at 10 mg/kg, po and measured upto 24 hrs by LC-MS/MS analysis; format: ADME, organism-based; design: dose 10 mg/kg, time < 24 hrs, route po; conditions: in vivo
[9] = test system: BMMC; assay: Anti-osteoclastogenic activity in C57/BL6 mouse BMMC cells assessed as reduction in RANKL-induced TRAP mRNA expression level at 0.1 uM incubated for 1 to 5 days in presence of M-CSF by qRT-PCR analysis; format: functional, cell-based; conditions: time 1-5 day, TDE = time-dependent effect
[10] = Microsomal stability in mouse liver microsomes assessed as parent compound remaining at 1 uM and measured after 60 mins by LC-MS/ MS analysis; format: ADME, Microsome; conditions: read-out: Stability
[11] = test system: BMMC; assay: Anti-osteoclastogenic activity in C57/BL6 mouse BMMC cells assessed as reduction in RANKL-induced MMP-9 mRNA expression level at 0.1 uM incubated for 1 to 5 days in presence of M-CSF by qRT-PCR analysis; format: functional, cell-based; conditions: time 1-5 day, TDE = time-dependent effect
[12] = test system: BMMC; assay: (§1) Anti-osteoclastogenic activity in C57/BL6 mouse BMMC cells assessed as inhibition of RANKL-induced osteoclast differentiation at 0.01 uM incubated for 5 to 7 days in presence of M-CSF by TRAP staining based microscopic analysis relative to control; format: functional; conditions: time 5-7 day
[13] = test system: BMMC; assay: Anti-osteoclastogenic activity in C57/BL6 mouse BMMC cells assessed as reduction in RANKL-induced CTSK mRNA expression level at 0.1 uM incubated for 1 to 5 days in presence of M-CSF by qRT-PCR analysis; format: functional, cell-based; conditions: time 1-5 day, TDE = time-dependent effect
[14] = Cmax in ICR mouse at 10 mg/kg, po and measured upto 24 hrs by LC-MS/MS analysis; format: ADME, organism-based; design: dose 10 mg/kg, time < 24 hrs, route po; conditions: in vivo
[15] = Tmax in ICR mouse at 10 mg/kg, po and measured upto 24 hrs by LC-MS/MS analysis; format: ADME, organism-based; conditions: in vivo
[16] = Toxicity in ovariectomy induced osteoporosis C57BL/6 mouse model assessed as body weight change at 1 to 3 mg/kg, ip and measured for 6 weeks; format: organism-based; conditions: in vivo, 1008 h, dose 1-3 mg/kg
[17] = test system: BMMC; assay: Anti-osteoclastogenic activity in C57/BL6 mouse BMMC cells assessed as reduction in RANKL-induced ATPase v0d2 mRNA expression level at 0.1 uM incubated for 1 to 5 days in presence of M-CSF by qRT-PCR analysis; format: functional, cell-based; conditions: time 1-5 day, TDE = time-dependent effect
[18] = Microsomal stability in mouse liver microsomes assessed as half life at 1 uM and measured upto 60 mins by LC-MS/ MS analysis; format: ADME, Microsome
[19] = test system: BMMC; assay: Anti-osteoclastogenic activity in C57/BL6 mouse BMMC cells assessed as reduction in RANKL-induced MMP-9 protein expression level at 0.1 uM incubated for 1 to 3 days in presence of M-CSF by Western blot anlaysis; format: functional, cell-based; conditions: time 1-3 day
[20] = test system: BMMC; assay: Anti-osteoclastogenic activity in C57/BL6 mouse BMMC cells assessed as reduction in RANKL-induced CTSK protein expression level at 0.1 uM incubated for 1 to 3 days in presence of M-CSF by Western blot anlaysis; format: functional, cell-based; conditions: time 1-3 day
[21] = Oral bioavailability in ICR mouse at 10 mg/kg and measured upto 24 hrs by LC-MS/MS analysis; format: ADME, organism-based; conditions: in vivo
[22] = AUC (0 to infinity) in ICR mouse at 1 mg/kg, iv and measured upto 24 hrs by LC-MS/MS analysis; format: ADME, organism-based; design: dose 1 mg/kg, time < 24 hrs, route iv; conditions: in vivo
[23] = test system: Mus musculus; assay: Protective effect in ovariectomy induced osteoporosis C57BL/6 mouse model assessed as increase in trabecular bone number (Tb.N) in RIO of femur at 1 to 3 mg/kg, ip and measured after 6 weeks by micro-CT analysis; format: functional, organism-based; conditions: dose 1-3 mg/kg
[24] = test system: BMMC; assay: as §1, with “differentiation by measuring number of TRAP-positive multinucleated cells” for “differentiation”, “0.01 to 5” for “0.01”; format: functional, cell-based; conditions: dose 0.01-5 µM, time 5-7 day
[25] = test system: Mus musculus; assay: Protective effect in ovariectomy induced osteoporosis C57BL/6 mouse model assessed as increase in trabecular separation (Tb.Sp) in RIO of femur at 1 to 3 mg/kg, ip and measured after 6 weeks by micro-CT analysis; format: functional, organism-based; conditions: dose 1-3 mg/kg
[26] = test system: BMMC; assay: Anti-osteoclastogenic activity in C57/BL6 mouse BMMC cells assessed as inhibition of RANKL-induced osteoclast differentiation at 0.01 to 5 uM incubated for 5 to 7 days in presence of M-CSF by TRAP staining based microscopic analysis relative to control; format: functional, cell-based; conditions: dose 0.01-5 µM, time 5-7 day
[27] = test system: BMMC; assay: Anti-osteoclastogenic activity in C57/BL6 mouse BMMC cells assessed as inhibition of RANKL-stimulated osteoclastogenesis at 1 uM and compound added at day 3 to 5 (mid stage) and measured after 5 days in presence of M-CSF by TRAP staining based microscopic analysis relative to control; format: functional; conditions: 120 h, time 5 day
[28] = Tmax in ICR mouse at 1 mg/kg, iv and measured upto 24 hrs by LC-MS/MS analysis; format: ADME, organism-based; conditions: in vivo
[29] = AUC (0 to infinity) in ICR mouse at 10 mg/kg, po and measured upto 24 hrs by LC-MS/MS analysis; format: ADME, organism-based; design: dose 10 mg/kg, time < 24 hrs, route po; conditions: in vivo
[30] = test system: BMMC; assay: Cytotoxicity against C57/BL6 mouse BMMC cells assessed as reduction in cell viability at 10 uM incubated for 24 hrs by CCK-8 assay; format: toxicity, cell-based
[31] = test system: BMMC; assay: Anti-osteoclastogenic activity in C57/BL6 mouse BMMC cells assessed as inhibition of RANKL-induced osteoclast differentiation by observing number of TRAP-positive multinucleated cells at 1 uM and compound added at different times and measured after 7 days in presence of M-CSF by TRAP staining based microscopic analysis relative to control; format: functional, cell-based; conditions: time 7.0 day, TDE = time-dependent effect
[32] = test system: MC3T3-E1; assay: Induction of osteoblastogenesis in beta-glycerophosphate and vitamin C stimulated mouse MC3T3-E1 cells assessed as increase in ALP activity at 0.1 uM incubated for 7 days by ALP staining based microscopic analysis; format: functional, cell-based; conditions: time 7.0 day

Which Cmax [1] does the source give for C=C(CCC=C(C)C)[C@H]1CC[C@]2(C)[C@@H]1[C@H](O)C[C@@H]1[C@@]3(C)Cc4cnc(C)nc4C(C)(C)[C@@H]3CC[C@]12C here?
The Cmax was 4180 ng/mL.

What about the half-life [2] of the same molecule?
The half-life was 61.8 min.

And the Vd [3]?
The Vd was 0.413 L/kg.

And the inhibition at 1 µM [4]?
The inhibition at 1 µM was 62.3%.

What about the Activity [5] of the same molecule?
Its Activity is “Active”.

What about the Activity [6] of the same molecule?
The Activity was 23.2%.

What about the inhibition [7] of the same molecule?
The inhibition was “Active”.

And the AUC(0-t) at 24 h [8]?
The AUC(0-t) at 24 h was 1210 ng·h/mL.

What about the Activity [9] of the same molecule?
The Activity was “Tde”.

What about the remaining at 1 h, 1 µM [10] of the same molecule?
Its remaining at 1 h, 1 µM is 31%.

And the Activity [11]?
Its Activity is “Tde”.

And the inhibition at 0.01 µM [12]?
The inhibition at 0.01 µM was 44.4%.

And the Activity [13]?
Its Activity is “Tde”.

And the Cmax [14]?
Its Cmax is 823 ng/mL.

What about the Tmax [15] of the same molecule?
Its Tmax is 60 min.

And the Activity [16]?
Its Activity is “Non-Toxic”.

What about the Activity [17] of the same molecule?
Its Activity is “Tde”.

And the half-life at 1 µM [18]?
The half-life at 1 µM was 37.1 min.

And the Activity [19]?
The Activity was “Active”.

And the Activity [20]?
The Activity was “Active”.

And the bioavailability [21]?
The bioavailability was 10.5%.

What about the AUC(0-inf) [22] of the same molecule?
The AUC(0-inf) was 1170 ng·h/mL.

What about the Activity [23] of the same molecule?
The Activity was “Active”.

What about the inhibition [24] of the same molecule?
Its inhibition is “Dose-Dependent Effect”.

And the Activity [25]?
Its Activity is “Active”.

What about the inhibition [26] of the same molecule?
The inhibition was “Dose-Dependent Effect”.

And the inhibition at 1 µM [27]?
Its inhibition at 1 µM is 94.4%.

And the Tmax [28]?
Its Tmax is 4.8 min.

And the AUC(0-inf) [29]?
Its AUC(0-inf) is 1230 ng·h/mL.

What about the Activity [30] of the same molecule?
The Activity was “>= 100%”.

And the inhibition [31]?
The inhibition was “Tde”.

What about the Activity [32] of the same molecule?
Its Activity is “Active”.
